Publication PMC7773174 (Tetrahedron letters, 2020)
Values after ≈ are worked out from the molar mass of the structure shown.

Tests used:
[1] = system: MRSA; conditions: cited from earlier work
[2] = system: MSSA (Staphylococcus aureus SH1000); assay: MIC, broth dilution antimicrobial susceptibility; type: cell-based; conditions: S. aureus SH1000; highest value of three independent trials
[3] = system: HA-MRSA (Staphylococcus aureus ATCC 33591); assay: MIC, broth dilution antimicrobial susceptibility; type: cell-based; conditions: S. aureus ATCC 33591; highest value of three independent trials
[4] = system: CA-MRSA (Staphylococcus aureus USA 300-0114); assay: MIC, broth dilution antimicrobial susceptibility; type: cell-based; conditions: S. aureus USA 300-0114; highest value of three independent trials
[5] = system: Enterococcus faecalis (OG1RF); assay: MIC, broth dilution antimicrobial susceptibility; type: cell-based; conditions: highest value of three independent trials
[6] = system: Pseudomonas aeruginosa (PAO1); assay: MIC, broth dilution antimicrobial susceptibility; type: cell-based; conditions: highest value of three independent trials
[7] = system: Escherichia coli (MC4100); assay: MIC, broth dilution antimicrobial susceptibility; type: cell-based; conditions: highest value of three independent trials
[8] = system: red blood cell (RBC), mechanically defibrillated sheep's blood; type: cell-based
[9] = Partition coefficient by extraction with n-octanol and deionized water; type: physicochemical
[10] = system: plasma binding proteins, namely retinoid binding proteins; assay: Binding to plasma binding proteins; type: in vitro ADME; conditions: unpublished data
[11] = Solubility within serum; type: physicochemical; conditions: preliminary analysis

Compound	minimum inhibitory concentration (MIC) ([1]; ref [5])	Minimum Inhibitory Concentration MSSA [2]	Minimum Inhibitory Concentration HA-MRSA [3]	Minimum Inhibitory Concentration CA-MRSA [4]	Minimum Inhibitory Concentration E. faecalis [5]	Minimum Inhibitory Concentration P. aeruginosa [6]	Minimum Inhibitory Concentration E. coli [7]	Lysis20 [8]	P (partition coefficient) ([9]; average over 3 independent trials)	logP ([9]; triplicate, ± standard deviation)	binding to plasma binding proteins [10]	solubility within serum [11]	MIC ([1]; ref [6]–[7])
O=C(O)c1ccc2cc(-c3ccc(O)c(C45CC6CC(CC(C6)C4)C5)c3)ccc2c1 [Compound 1, CD437, reference compound]	1 µg/mL (≈ 2.51 µM)	–	–	–	–	–	–	–	–	–	–	–	–
OCc1ccc2cc(-c3ccc(O)c(C45CC6CC(CC(C6)C4)C5)c3)ccc2c1 [Compound 2]	–	2 µM	2 µM	2 µM	>250 µM	>250 µM	>250 µM	125 µM	9.16	0.93 ± 0.20	high levels of binding	low solubility	2 µg/mL (≈ 5.2 µM)
benzalkonium chloride [BAC, reference compound]	–	2 µM	4 µM	4 µM	125 µM	125 µM	32 µM	32 µM	–	–	–	–	–
